Test results as given in patent US20250195468A1, “METHODS AND COMPOSITIONS FOR TREATING COLORECTAL CANCER WITH INDOXYL SULFATE” (National Institute of Immunology, priority 2023, published 2025).
Where a name gives a salt, the structure may show the parent alone.

Experiments:
[1] = tested on: inflammatory cytokines IL-17A, IL-1β and TNF-α; experiment: Cytokine study (ELISA of blood samples); assay type: in vivo, mice; settings: IP and IR, zero, 1 month, 2 month
Method: Each group consisted of six mice. […] For the cytokine study, blood samples were collected from the mice. The cytokines of interest, IL-1β, TNF-α, and IL-17A, were analyzed in all groups at three different time points: baseline (time point zero), one month, and two months. The analysis was performed using an ELISA kit from R&D Systems. The experimental procedure for cytokine study followed the instructions provided with the kit. In summary, each well of the ELISA plate was coated with a specific monoclonal antibody against the respective cytokines. Then, 50 ul of standard, control, and sample were added to the appropriate wells. The plate was incubated at room temperature (RT) for 2 hours. After incubation, each well was washed four times with 400 ul of buffer to remove any unbound substances. Subsequently, 100 ul of the secondary antibody conjugate was added to each well and incubated at RT for another 2 hours. Following the second incubation, the wells were washed four times, and 100 ul of substrate solution was added. The plate was then incubated for 30 minutes at RT in the dark. After incubation, 100 ul of stop solution was added to each well to halt the enzymatic reaction. The optical density (OD) of the samples was measured at wavelengths of 450 nm and 570 nm within 30 minutes of adding the stop solution. To obtain the final readings, the absorbance at 570 nm was subtracted from the absorbance at 450 nm.

HT-29 cells [2] = experiment: Apoptosis assay, Annexin V-FITC/PI flow cytometry; assay type: cell-based, human; settings: for apoptotic percentage: 48 hours, untreated 3%
Method: (§1) The apoptotic effect of IS was evaluated on HCT-116 and HT-29 cells using the propidium iodide (PI)/Annexin V-fluorescein isothiocyanate (FITC) dual staining kit (ab14085: Abcam, USA). Duplicate wells of cells were cultured at a density of 3×10^5 cells per well in 6-well plates. After 24 hours of seeding, the cells were treated with IS at concentrations of 1.25 mM, 5 mM, and 10 mM. Following a 48-hour treatment period, the cells were harvested using trypsin and washed twice with PBS. After the washing steps, the cells were resuspended in 1 ml of fresh media and counted at each concentration using a hematocytometer. From each concentration, 2×10^5 cells were taken and dissolved in 500 μl of binding buffer, 5 μl of PI, and 5 μl of Annexin V-FITC. The cells were then incubated in the dark at room temperature for 30 minutes. Subsequently, the cells were analyzed for apoptosis using flow cytometry (BD Biosciences, FACS Canto™ Flow Cytometer, Germany) at 488 nm. Untreated cells were used as controls for comparison.

HCT-116 cells [3] = experiment: Apoptosis assay, Annexin V-FITC/PI flow cytometry; assay type: cell-based, human; settings: for apoptotic percentage: 48 hours, untreated 3%
Method: as §1

HT-29 cells [4] = experiment: Cell viability by MTT assay; assay type: cell-based, human; settings: for viability at 10000 µM: Homo sapiens, HT-29, 10 mM, untreated = 100%
Method: (§2) Human colon epithelial adenocarcinoma cell lines, HT-29 and HCT-116 (procured from ATCC), are commonly utilized for CRC research. HT-29 cells were cultured in McCoy 5A media (Gibco) supplemented with 10% heat-inactivated FBS (Gibco) and penicillin-streptomycin (Sigma-Aldrich: Merck KGaA, Germany). On the other hand, HCT-116 cells were cultured in Dulbecco's modified Eagle's medium-F12 nutrient mixture (DMEM-F12: Gibco) supplemented with 10% heat-inactivated FBS (Gibco) and penicillin-streptomycin (Sigma-Aldrich: Merck KGaA, Germany). The cells were incubated in a humidified incubator at 37° C. with 5% CO2.
(§3) To evaluate the impact of IS treatment, cell viability was assessed using Thiazolyl Blue Tetrazolium Bromide (MTT) dye. HT-29 and HCT-116 cells were seeded at a density of 3000 cells per well in a 96-well plate. After 24 hours of seeding, the cells were exposed to various concentrations of IS, including 0.018 mM, 0.037 mM, 0.075 mM, 0.15 mM. 0.31 mM, 0.62 mM. 1.25 mM, 2.5 mM, 5 mM, and 10 mM. Triplicate wells were treated with IS for three different incubation periods: 24 hours, 48 hours, and 72 hours. After the respective incubation periods. 20 μl of MTT dye (5 mg/ml) was added to each well and incubated for 3 hours. The yellow MTT dye is converted into purple formazan crystals by the mitochondrial succinate dehydrogenase enzyme, NAD (P) H. Following the incubation, 100 μl of dimethyl sulphoxide (DMSO) was added to dissolve the formazan crystals. Formazan crystal dissolve immediately after adding DMSO, so taken the reading just after adding the DMSO. The intensity of the purple color is directly proportional to cell viability. Absorbance was measured at 570 nm using a Multiskan Sky microplate spectrophotometer (Thermo Scientific). Non-treated cells served as controls and were considered 100% viable.

HCT-116 cells [5] = experiment: Cell viability by MTT assay; assay type: cell-based, human; settings: for viability at 10000 µM: Homo sapiens, HCT-116, 10 mM, untreated = 100%
Method: as §2, §3

HT-29 cells [6] = experiment: CellTiter-Glo luminescent cell viability assay (ATP content); assay type: cell-based; settings: Homo sapiens; HT-29, 72 hours; concentration not stated in b112 (FIG. 2: most cytotoxic at 10 mM)
Method: Cell viability was also assessed using the CellTiter-Glo R: Assay kit, which measures the amount of ATP to indicate cellular metabolic activity. HT-29 and HCT-116 cells were cultured in a 96-well plate at a density of 2500 cells per well. After 24 hours of seeding, the cells were exposed to various concentrations of IS, including 0.018 mM, 0.037 mM, 0.075 mM. 0.15 mM, 0.31 mM, 0.62 mM, 1.25 mM, 2.5 mM, 5 mM, and 10 mM. Triplicate wells were treated with IS for two different incubation periods: 48 hours and 72 hours. After the respective incubation periods. the assay was performed following the manufacturer's protocol. The details of the protocol can be found in the kit provided by the manufacturer. In summary, luminescence was measured using a Sirius Luminometer V3.2 (Berthold DETECTIONN SYSTEMS) with a measurement delay time of 2 seconds and a measurement time of 5 seconds. Non-treated cells were used as controls, representing 100% metabolically active cells in terms of ATP content.

[7] = 10 mM, 48-hour treatment, stated for cells in general

Q: Which results are given for `O=S(=O)(O)Oc1c[nH]c2ccccc12` [IS, Indoxyl Sulfate]?
A: level of IL-1β vs control groups [1]: no significant differences; level of IL-17A vs control groups [1]: no significant differences; level of TNF-α vs control groups [1]: no significant differences; increase in cell apoptosis compared to the control (HT-29 cells [2]; [7]): 10%; apoptotic percentage (HT-29 cells [2]; HT-29, 5 mM): 8%; apoptotic percentage (HT-29 cells [2]; HT-29, 10 mM): 12%; increase in cell apoptosis compared to the control (HCT-116 cells [3]; [7]): 10%; apoptotic percentage (HCT-116 cells [3]; HCT-116, 5 mM): 9%; apoptotic percentage (HCT-116 cells [3]; HCT-116, 10 mM): 13%; cell viability (HT-29 cells [4]; 0.62 mM, cell line not given): cell viability unexpectedly increased; viability at 10000 µM (HT-29 cells [4]; 24 hours): 41%; viability at 10000 µM (HT-29 cells [4]; 48 hours): 30%; viability at 10000 µM (HT-29 cells [4]; 72 hours): 17%; cell viability (HCT-116 cells [5]; 0.62 mM, cell line not given): cell viability unexpectedly increased; viability at 10000 µM (HCT-116 cells [5]; 24 hours): 30%; viability at 10000 µM (HCT-116 cells [5]; 48 hours): 7%; viability at 10000 µM (HCT-116 cells [5]; 72 hours): 4%; viability at 10000 µM (HT-29 cells [6]): 19%
